The source of these data is patent US20210147811A1, “METHODS FOR IN VITRO EXPANSION OF ADULT TISSUE STEM CELLS” (CEDARS-SINAI MEDICAL CENTER, priority 2018, published 2021).

One experiment relates to airway epithelial cells. In words: In vitro clonogenic potential and colony-forming ability with Rho kinase inhibitor HA1077. The following applies: FIG. 11. It counts as cell-based. The text has this:
FIG. 11. […] P53 and ROCK regulate epithelial colony-forming ability and “stemness”. Tp53 (p53) is a tumor suppressor that is one of the most commonly mutated genes in cancer. In addition to its classical functions of regulating cell fate following cellular stress, p53 regulates migration, autophagy, metabolism, and tumor microenvironment signaling. p53 regulates self-renewal and terminal differentiation of both neural and mammary stem cells in vitro, and of hematopoietic and kidney stem/progenitor cells in vivo. In the Inventors' previous work the Inventors have shown that loss of p53 function promotes stem cell renewal in vivo and leads to a dramatic increase in colony-forming epithelial progenitor cells in vitro. The impact of p53 loss-of-function on airway epithelial in vitro colony-forming ability can be phenocopied by pharmacologic inhibition of Rho kinase (ROCK). Experiments proposed in the Inventors' application will use transient pharmacologic modulation of ROCK and p53 as tools to enhance survival and “sternness” of transplanted epithelial cells and overcome the need for co-transplanted structural lung cells for their efficient engraftment.

Experiment [1] concerns murine pre-cultured distal total epithelial cells. In words: 3D organoid culture of murine distal total epithelial cells pre-cultured 24 hrs on collagen coated plates. The following applies: pre-cultured on collagen coated plates for 24 hrs after isolation, +SB431542; dihydrochloride. The experiment is classed as cell-based. The text has this: FIG. 4. Effect of pre-culturing—Day 3. Pre-culturing cells on collagen coated plates for 24 hrs after initial isolation increases the rate of organoid formation, with organoids being visible as early as day 3 in culture.
FIG. 5. Effect of pre-culturing—Day 8. Addition of Pifithrin α causes an increase in organoids size, while addition of ROCKi causes an increase in the colony forming efficiency. This effect is more pronounced when cells are pre-cultured for 24 hrs on collagen coated plates after initial isolation.
FIG. 14. Effect of inhibitors on murine pre-cultured distal total epithelial cells in (+SB431542). Addition Pifithrin alpha increases organoid size while addition of ROCKi increases the colony forming efficiency when murine distal total epithelial cells (isolated from the lung without trachea) are pre-cultured on collagen coated plates for 24 hrs prior after initial isolation. The effect on size is more pronounced when cells are precultured for 24 hrs on collagen coated plates after initial isolation. The drop in CFE in the Pifithrin alpha+ROCKi group is likely due space and nutrient availability constraints due to the large number of organoids per well.
(§1) ROCKi increases the colony forming efficiency when murine distal total epithelial cells (isolated from the lung without trachea) are pre-cultured on collagen coated plates for 24 hrs prior after initial isolation. The effect on size is more pronounced when cells are precultured for 24 hrs on collagen coated plates after initial isolation. The drop in CFE in the Pifithrin alpha+ROCKi group is likely due space and nutrient availability constraints due to the large number of organoids per well. Addition of both ROCKi and Pifithrin alpha (in presence of SB431542) increases the colony forming efficiency of freshly isolated alveolar type II cells (regional stem cells which maintain the epithelium of the air sacs in the lung). The effect is synergistic for their combined use, similar to that seen for total distal epithelial cells in the previous figures.

Experiment [2] concerns freshly isolated murine distal total epithelial cells. The experiment in a line: 3D organoid culture of freshly isolated murine distal total epithelial cells. The experiment is classed as cell-based. The following applies: for % colony forming efficiency: freshly isolated murine lung epithelial cells, addition to the culture medium (FIG. 3). The text has this: (§2) FIG. 1. Experimental design. Preconditioning of donor cells, including addition of small molecules such as ROCK inhibitor, pifithrin α, or combined together, and generation of organoids.
FIG. 3. […] Addition of the TGF-β inhibitor, SB 431542 to the culture medium increases the % colony forming efficiency of freshly isolated murine lung epithelial cells. Addition of Pifithrin α causes an increase in organoids size, while addition of ROCKi causes an increase in the colony forming efficiency.
FIG. 13. Effect of p53 and ROCKi inhibition on murine freshly isolated distal total epithelial cells in (+SB431542). Addition of both ROCKi and Pifithrin alpha (in presence of SB431542) increases the colony forming efficiency of freshly isolated murine distal total epithelial cells (isolated from the lung without trachea). […] Pifithrin alpha also causes an increase in the size of the organoids (C). […] The drop in mean diameter of the Pifithrin alpha+ROCKi group is likely due to space constraints because of the large number of organoids per well.
Further described herein is a cell culture including a quantity of human stem cells, or stem cell derived cells in a cell culture media including at least one molecule including: a RHO-kinase (ROCK) inhibitor, SMAD inhibitor, and p53 inhibitor. In other embodiments, the RHO-kinase inhibitor is Y27632 and the p53 inhibitor is Pifithrin α. In other embodiments, the stem cells are adult stem cells. In other embodiments, the stem cell derived cells are lung epithelial cells. In various embodiments, the aforementioned inhibitors are at a concentration of 0.1-1 uM, 1-5 uM, 5-10 uM, 10-25 uM, 25-50 uM, or 50 uM or more. In various embodiments, the p53 inhibitor is Pifithrin-alpha. For example, this includes a media formulated as follows: 5 mL FBS, 500 uL ITS (100×), 50 uL Fungizone, 500 uL Pen/Strep (100×), DMEM/F12 up to 50 mL, 5 uL SB431542, Pifithrin-alpha 10 uM, ROCKi (Y-27632 dihydrochloride)—10 uM. Also described herein is a quantity of organoids including cells made by the aforementioned methods. In various embodiments, the organoids include proximal and/or distal cells. In various embodiments, the distal cells are alveolar type II progenitors and/or Scgb1a1 positive club progenitor cells.

For the next experiment, the system named is distal progenitor cells. In words: Differentiation potential of distal progenitors after 3D organoid culture with inhibitors. The experiment is classed as cell-based. The following applies: 14 days with Pifithrin-alpha, ROCKi and SB431542, then 7 days without inhibitors, PDPN and SPC staining. The protocol:
FIG. 16. […] Distal progenitor cells were cultured as 3D organoids for 14 days in presence of Pifithrin-alpha, ROCKi and SB431542 followed by culture for 7 days in media without all three inhibitors. […] DAPI (blue) is a nuclear stain.
(§3) Distal progenitor cells were cultured as 3D organoids for 14 days in presence of Pifithrin-alpha, ROCKi and SB431542 followed by culture for 7 days in media without all three inhibitors. […] Addition of ROCKi (in presence of SB431542) increases the colony forming efficiency of freshly isolated club cells (regional stem cells which maintain certain cell types in the bronchiolar epithelium) whereas addition of Pifithrin alpha (in presence of SB431542) increases the size of Scgb1a1-derived organoids. Addition of both ROCKi (in presence of SB431542) increases the colony forming efficiency of freshly isolated murine proximal total epithelial cells (isolated from the murine trachea).

Experiment [3] relates to freshly isolated club cells. The experiment in a line: Organoid culture of lineage labelled murine club cells. The experiment is classed as cell-based. The following applies: GFP+ club cells, in presence of SB431542.
From the text: FIG. 17. Effect of ROCK and P53 inhibition on lineage labelled murine club cells. GFP^+ club cells were isolated from tamoxifen treated Scgb1a1-CreER/ROSARG mice. Addition of ROCKi (in presence of SB431542) increases the colony forming efficiency of freshly isolated club cells (regional stem cells which maintain certain cell types in the bronchiolar epithelium) whereas addition of Pifithrin alpha (in presence of SB431542) increases the size of Scgb1a1-derived organoids.
as §3

Experiment [4] has as its system freshly isolated murine proximal total epithelial cells. The experiment in a line: Organoid culture of murine tracheal progenitor (basal) cells. The experiment is classed as cell-based. On the procedure:
FIG. 18. Effect of ROCK and P53 inhibition on murine tracheal progenitor (basal) cells. Addition of both ROCKi (in presence of SB431542) increases the colony forming efficiency of freshly isolated murine proximal total epithelial cells (isolated from the murine trachea).
as §3

A further experiment concerns freshly isolated cells. The experiment in a line: Freshly isolated cells cultured with small molecules at different time points (proliferation). It counts as cell-based. Particulars: different time points (FIG. 2).
From the text: as §2
FIG. 2. Freshly isolated cells cultured with small molecules at different time points.

Experiment [5] has as its system human bronchial epithelial stem cells. The following applies: inhibition of ROCK1 and 2; cited from earlier work.
The test system of experiment [6] is freshly isolated alveolar type II cells. The experiment in a line: Organoid culture of lineage labelled murine alveolar type II cells. Particulars: GFP+ alveolar type II cells, in presence of SB431542. It counts as cell-based.
From the text: FIG. 15. Effect of ROCK and P53 inhibition on lineage labelled murine alveolar type II cells. GFP^+ alveolar type II cells were isolated from tamoxifen treated SPC-CreER/ROSARG mice. Addition of both ROCKi and Pifithrin alpha (in presence of SB431542) increases the colony forming efficiency of freshly isolated alveolar typeII cells (regional stem cells which maintain the epithelium of the air sacs in the lung). The effect is synergistic for their combined use, similar to that seen for total distal epithelial cells in the previous figures.
as §1

The subject of experiment [7] is Scgb1a1 immunoreactive cells. In words: Club cell ablation by gancyclovir in Scgb1a1-HSVtk transgenic mice. The experiment is classed as in vivo. Particulars: 12.5 mg total delivered dose through miniosmotic pump, 7 days post-treatment. The protocol: FIG. 9. Orthotopic cell transplantation. Scgb1a1-HSVtk transgenic mice were exposed to gancyclovir delivered through miniosmotic pump and club cell ablation monitored by immunofluorescence. A dose of 12.5 mg gancyclovir (total delivered dose) led to >90% loss of Scgb1a1 immunoreactive cells 7 days post-treatment (red immunofluorescence in panel A). Total lung cells were isolated from ROSA-GFP mice and 1×10^6 cells transplanted into lungs of gancyclovir-treated mice that received i.t. chlodronate-containing liposomes for depletion of macrophages. Transplanted cells are shown in green in B and C, with cell type-specific markers shown by red immunofluorescence in C. Transplantation of 1×10^6 ROSA-mT lung cells (total cells following depletion of CD45+ fraction) into recipient lung tissue pre-conditioned by 6 Gy X-Rays led to efficient engraftment as shown by light sheet microscopy 2 weeks post transplant (D). The Inventors' initial efforts to develop a protocol for functional engraftment of transplanted epithelial stem cells involved sequential ablation of club cells through delivery of gancyclovir to Scgb1a1-HSVtk trangenic mice followed by delivery of liposome encapsulated chlodronate to deplete macrophages (FIG. 9A-C). […] Difficulties with this model were lack of translatability and poor survival of recipient mice. […]

Entries after “also recorded” stand apart in the source; their conditions may differ. Bounds are passed on as bounds.

`O=S(=O)(c1cccc2cnccc12)N1CCCNCC1` [HA1077]: in the experiment on airway epithelial cells, the colony-forming ability result is reported as “without altering” and the “in vitro clonogenic potential” value is on record as “increases”.
Regarding `C[C@@H](N)[C@H]1CC[C@H](C(=O)Nc2ccncc2)CC1.Cl.Cl` [ROCKi, Y-27632 dihydrochloride], the colony forming efficiency entry in experiment [1] is listed as “increase”; in [2] (freshly isolated cells, in presence of SB431542 (FIG. 13)) it was “increases”; in experiment [3], “increases”; in experiment [4] (cells isolated from the murine trachea, in presence of SB431542), “increases”; in experiment [6], “increases”. For the same compound, the “survival and proliferation of the stem cells (inferred from CFE and organoid size)” value in experiment [2] (freshly isolated distal cells, FIG. 13) was “increase survival”. The “% colony forming efficiency” value in experiment [2] was “increase”. In addition, in the experiment on distal progenitor cells (dihydrochloride), the differentiation potential result is reported as “did not alter; also recorded: do not alter”. Further, the “survival of proximal and distal progenitors (inferred from colony forming ability)” value in [4] (comparison of proximal and distal progenitor cell types, dihydrochloride) is “increase survival of both proximal and distal progenitors; also recorded: increases survival”. Further, the proliferation of cells result with freshly isolated cells is recorded as “have an effect on proliferation”. For the same compound, the “survival and expansion of human bronchial epithelial stem cells” value in experiment [5] was “promote survival and expansion”. For the same compound, the “size of the alveolar organoids” value in [6] was “does not increase”.
In the case of `NC(=O)c1ccc(-c2nc(-c3ccc4c(c3)OCO4)c(-c3ccccn3)[nH]2)cc1` [SB 431542], the “% colony forming efficiency” value in [2] is listed as “increases”. In addition, the differentiation potential entry in the experiment on distal progenitor cells is “did not alter”.
On to `Nc1nc(O)c2ncn(COC(CO)CO)c2n1` [gancyclovir], for which, in [7], the “loss of Scgb1a1 immunoreactive cells” value is recorded as above 90%.
